Experimental data taken from patent publication US20240051931A1, “HDAC INHIBITORS” (University of Pittsburgh - Of the Commonwealth System of …, priority 2020, published 2024).

Key:
HDAC 6 = target: T1, HDAC 6 (Homo sapiens, UniProt Q9UBN7); experiment: HDAC 6 activity at fixed concentration (Table 2); format: biochemical; parameters: unit not given here; settings: compound at 50 nM
T1 sequence (Q9UBN7 1-1215): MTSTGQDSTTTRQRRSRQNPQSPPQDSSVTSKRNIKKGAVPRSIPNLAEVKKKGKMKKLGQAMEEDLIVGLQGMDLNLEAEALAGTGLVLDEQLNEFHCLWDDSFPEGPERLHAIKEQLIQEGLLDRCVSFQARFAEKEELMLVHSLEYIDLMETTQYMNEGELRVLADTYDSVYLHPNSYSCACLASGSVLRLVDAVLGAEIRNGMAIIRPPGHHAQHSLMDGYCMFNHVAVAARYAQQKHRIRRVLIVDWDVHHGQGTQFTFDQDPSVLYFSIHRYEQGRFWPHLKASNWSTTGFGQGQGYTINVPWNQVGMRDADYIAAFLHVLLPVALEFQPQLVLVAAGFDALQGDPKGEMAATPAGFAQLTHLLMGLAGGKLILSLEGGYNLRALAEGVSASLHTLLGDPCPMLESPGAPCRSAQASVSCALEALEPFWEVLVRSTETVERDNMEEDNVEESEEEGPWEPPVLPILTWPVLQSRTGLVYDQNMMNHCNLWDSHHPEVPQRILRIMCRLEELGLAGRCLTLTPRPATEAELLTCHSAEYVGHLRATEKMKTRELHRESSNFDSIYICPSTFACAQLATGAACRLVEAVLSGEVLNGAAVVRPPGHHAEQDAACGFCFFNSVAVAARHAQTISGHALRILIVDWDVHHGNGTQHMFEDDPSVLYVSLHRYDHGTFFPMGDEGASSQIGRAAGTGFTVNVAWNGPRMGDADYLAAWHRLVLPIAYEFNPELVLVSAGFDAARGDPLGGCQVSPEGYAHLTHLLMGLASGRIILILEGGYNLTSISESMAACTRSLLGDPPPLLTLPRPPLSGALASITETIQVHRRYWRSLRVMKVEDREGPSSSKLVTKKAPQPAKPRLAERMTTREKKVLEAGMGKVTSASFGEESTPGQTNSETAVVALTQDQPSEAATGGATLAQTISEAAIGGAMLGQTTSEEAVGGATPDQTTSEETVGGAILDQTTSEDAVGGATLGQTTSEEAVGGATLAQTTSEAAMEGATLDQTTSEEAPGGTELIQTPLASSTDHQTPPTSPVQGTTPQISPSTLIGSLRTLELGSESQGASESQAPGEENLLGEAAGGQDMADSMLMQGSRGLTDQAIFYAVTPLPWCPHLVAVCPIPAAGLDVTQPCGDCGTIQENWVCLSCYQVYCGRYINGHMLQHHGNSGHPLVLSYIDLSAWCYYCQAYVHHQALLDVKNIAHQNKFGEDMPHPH

PanHDAC = PanHDAC activity at fixed concentration (Table 2); format: biochemical; parameters: unit not given here; settings: compound at 1 uM

Row | Structure (SMILES) | melting point | HDAC 6 at 50 nM (HDAC 6) | PanHDAC at 1 uM (PanHDAC)
1 | Cl.O=C(CN1CCC2(CCc3cc(F)ccc3O2)CC1)NO | 200 to 203 °C |  | 
2 | O=C(Nc1cccc2c1OC(C(=O)NO)CC2)OCc1ccccc1Cl (racemic) [Compound 11L, 2-Chlorobenzyl (2-(hydroxycarbamoyl)chroman-8-yl)carbamate] | 182 to 188 °C |  | 
3 | C[C@@H]1Cc2ccccc2O[C@@H]1C(=O)NO (relative stereo) [Compound 73, (rel)-(2S,3R)—N-Hydroxy-3-methylchromane-2-carboxamide] | 156 to 160 °C |  | 
4 | CO[C@@H]1C[C@@H](C(=O)NO)Oc2ccccc21 (relative stereo) [Compound 85, (rel)-(2S,4R)—N-Hydroxy-4-methoxychromane-2-carboxamide] | 102 to 104 °C |  | 
5 | O=C(NO)[C@@H]1CCc2ccc(-c3ccc(F)c(Cl)c3)cc2O1 [(S)-58d, (S)-7-(3-Chloro-4-fluorophenyl)-N-hydroxychromane-2-carboxamide] | 173 to 174 °C |  | 
6 | O=C(NO)[C@@H]1CCc2ccc(-c3ccc(Cl)c(Cl)c3)cc2O1 [(S)-58e, (S)-7-(3,4-Dichlorophenyl)-N-hydroxychromane-2-carboxamide] | 134 to 136 °C |  | 
7 | O=C(Nc1cccc2c1O[C@@H](C(=O)NO)CC2)OCc1ccccc1Cl [+11L, 2-Chlorobenzyl (R)-(2-(hydroxycarbamoyl)chroman-8-yl)carbamate] | 173 to 175 °C |  | 
8 | CO[C@@H]1C[C@@H](C(=O)NO)Oc2ccccc21 [Compound 1-29] |  | 37 | 0
9 | CC(C)COC(=O)Nc1cccc2c1OC(C(=O)NO)CC2 (stereo not drawn) [Compound 1-30] |  | 29 | 0
10 | O=C(NO)C1CCc2cccc(NS(=O)(=O)CC(F)(F)F)c2O1 (stereo not drawn) [Compound 1-31] |  | 41 | 0
11 | COc1ccc(COC(=O)Nc2ccc3c(c2)CCC(C(=O)NO)O3)cc1 (stereo not drawn) [Compound 1-32] |  | 70 | 14
12 | O=C(Nc1ccc2c(c1)CCC(C(=O)NO)O2)OCc1ccccc1Cl (stereo not drawn) [Compound 1-33] |  | 32 | 0
13 | O=C(Nc1cccc2c1O[C@@H](C(=O)NO)CC2)OCc1ccccc1Cl [Compound 1-34] |  | 13 | 0
14 | O=C(NO)C1CCc2cccc(NS(=O)(=O)c3cccc4ccccc34)c2O1 (stereo not drawn) [Compound 1-35] |  | 0 | 0
15 | O=C(NCCc1c[nH]c2ccccc12)Nc1cccc2c1OC(C(=O)NO)CC2 (stereo not drawn) [Compound 1-36] |  | 6 | 0
16 | CS(=O)(=O)Nc1cccc2c1OC(C(=O)NO)CC2 (stereo not drawn) [Compound 1-37] |  | 2 | 6
17 | Cc1ccc(S(=O)(=O)Nc2cccc3c2OC(C(=O)NO)CC3)cc1 (stereo not drawn) [Compound 1-38] |  | 21 | 0
18 | O=C(NCc1cccc(S(F)(F)(F)(F)F)c1)Nc1cccc2c1OC(C(=O)NO)CC2 (stereo not drawn) [Compound 1-39] |  | 34 | 0
19 | O=C(Nc1ccc(F)cc1)Nc1cccc2c1OC(C(=O)NO)CC2 (stereo not drawn) [Compound 1-40] |  | 30 | 0
20 | O=C(Cc1c[nH]c2ccccc12)Nc1ccc2c(c1)CCC(C(=O)NO)O2 (stereo not drawn) [Compound 1-41] |  | 55 | 0
21 | O=C(Nc1cccc2c1OC(C(=O)NO)CC2)OCc1ccc(C(F)(F)F)cc1 (stereo not drawn) [Compound 1-42] |  | 14 | 0
22 | O=C(NCc1cccc(S(F)(F)(F)(F)F)c1)Nc1ccc2c(c1)CCC(C(=O)NO)O2 (stereo not drawn) [Compound 1-43] |  | 34 | 0
23 | Cc1ccc(COc2ccc3c(c2)OC(C(=O)NO)CC3)cc1 (stereo not drawn) [Compound 1-44] |  | 29 | 0

Row | Structure (SMILES) | melting point | HDAC 6 at 50 nM (HDAC 6) | PanHDAC at 1 uM (PanHDAC)
24 | O=C(COc1ccc(Cl)c(Cl)c1)Nc1cccc2c1OC(C(=O)NO)CC2 (stereo not drawn) [Compound 1-45] |  | 0 | 0
25 | O=C(Nc1ccc(F)cc1)Nc1ccc2c(c1)CCC(C(=O)NO)O2 (stereo not drawn) [Compound 1-46] |  | 48 | 0
26 | COc1ccccc1COc1ccc2c(c1)OC(C(=O)NO)CC2 (stereo not drawn) [Compound 1-47] |  | 53 | 0
27 | O=C(NO)C1CCc2ccc(OCc3ccc(F)cc3)cc2O1 (stereo not drawn) [Compound 1-48] |  | 0 | 0
28 | O=C(NO)C1CCc2ccc(OCCc3ccccc3)cc2O1 (stereo not drawn) [Compound 1-49] |  | 0 | 0
29 | O=C(NO)C1CCc2ccc(OCc3ccc(Cl)cc3)cc2O1 (stereo not drawn) [Compound 1-50] |  | 48 | 0
30 | O=C(NO)C1CCc2cc(NS(=O)(=O)c3cccc4ccccc34)ccc2O1 (stereo not drawn) [Compound 1-51] |  | 64 | 8
31 | COc1ccc(CNC(=O)Nc2ccc3c(c2)CCC(C(=O)NO)O3)cc1 (stereo not drawn) [Compound 1-52] |  | 0 | 0
32 | O=C(COc1ccccc1Cl)Nc1cccc2c1O[C@H](C(=O)NO)CC2 [Compound 1-53] |  | 25 | 0
33 | O=C(NO)C1CCc2ccc(-c3ccc(Cl)c(Cl)c3)cc2O1 (stereo not drawn) [Compound 1-54] |  | 39 | 0
34 | Cn1ccc2cc(-c3ccc4c(c3)OC(C(=O)NO)CC4)ccc21 (stereo not drawn) [Compound 1-55] |  | 44 | 0
35 | COc1ccc(-c2ccc3c(c2)OC(C(=O)NO)CC3)cc1 (stereo not drawn) [Compound 1-56] |  | 13 | 0
36 | O=C(Nc1ccc2c(c1)CC[C@@H](C(=O)NO)O2)c1ccc(-c2ccccc2)cc1 [Compound 1-57] |  | 7 | 0
37 | O=C(NO)[C@H]1CCc2ccc(OCc3ccc(Cl)cc3)cc2O1 [Compound 1-58] |  | 31 | 0
38 | O=C(NO)[C@@H]1CCc2ccc(OCc3ccc(Cl)cc3)cc2O1 [Compound 1-59] |  | 0 | 0
39 | COc1cccc(COC(=O)Nc2cccc3c2O[C@H](C(=O)NO)CC3)c1 [Compound 1-60] |  | 33 | 0
40 | O=C(NO)[C@@H]1CCc2ccc(-c3ccc(Cl)c(Cl)c3)cc2O1 [Compound 1-61] |  | 41 | 0
41 | O=C(Nc1cccc2c1O[C@H](C(=O)NO)CC2)OCc1ccc(Cl)cc1 [Compound 1-62] |  | 32 | 0
42 | O=C(Nc1cccc2c1O[C@H](C(=O)NO)CC2)OCc1ccc(Cl)c(Cl)c1 [Compound 1-63] |  | 45 | 0
43 | O=C(NO)[C@@H]1CCc2ccc(-c3ccc(F)c(Cl)c3)cc2O1 [Compound 1-64] |  | 47 | 3
44 | O=C(NO)[C@@H]1CCc2ccc(OCc3ccccc3Cl)cc2O1 [Compound 1-65] |  | 17 | 0
45 | COc1ccccc1COC(=O)Nc1cccc2c1O[C@H](C(=O)NO)CC2 [Compound 1-66] |  | 31 | 0
46 | O=C(Nc1ccc(F)cc1)Nc1cccc2c1OC(C(=O)NO)CC2 (stereo not drawn) [Compound 11c, 8-(3-(4-Fluorophenyl)ureido)-N-hydroxychromane-2-carboxamide] | 231 to 232 °C |  | 
